# Like-named read-outs stand apart in the source and are kept apart here.
# Tests used:
# glucosidase I = test: processing glucosidase I, release of [3H]glucose from Glc3Man9GlcNAc; type: biochemical, mung bean
# [1] = test system: influenza virus glycoproteins in infected MDCK cells; details: cited from earlier work
# intestinal sucrase = target: T1, intestinal sucrase (Homo sapiens, UniProt P14410); test: intestinal sucrase activity, sucrose as substrate; type: biochemical
# T1 construct: from tissue
# T1 sequence (P14410 whole entry): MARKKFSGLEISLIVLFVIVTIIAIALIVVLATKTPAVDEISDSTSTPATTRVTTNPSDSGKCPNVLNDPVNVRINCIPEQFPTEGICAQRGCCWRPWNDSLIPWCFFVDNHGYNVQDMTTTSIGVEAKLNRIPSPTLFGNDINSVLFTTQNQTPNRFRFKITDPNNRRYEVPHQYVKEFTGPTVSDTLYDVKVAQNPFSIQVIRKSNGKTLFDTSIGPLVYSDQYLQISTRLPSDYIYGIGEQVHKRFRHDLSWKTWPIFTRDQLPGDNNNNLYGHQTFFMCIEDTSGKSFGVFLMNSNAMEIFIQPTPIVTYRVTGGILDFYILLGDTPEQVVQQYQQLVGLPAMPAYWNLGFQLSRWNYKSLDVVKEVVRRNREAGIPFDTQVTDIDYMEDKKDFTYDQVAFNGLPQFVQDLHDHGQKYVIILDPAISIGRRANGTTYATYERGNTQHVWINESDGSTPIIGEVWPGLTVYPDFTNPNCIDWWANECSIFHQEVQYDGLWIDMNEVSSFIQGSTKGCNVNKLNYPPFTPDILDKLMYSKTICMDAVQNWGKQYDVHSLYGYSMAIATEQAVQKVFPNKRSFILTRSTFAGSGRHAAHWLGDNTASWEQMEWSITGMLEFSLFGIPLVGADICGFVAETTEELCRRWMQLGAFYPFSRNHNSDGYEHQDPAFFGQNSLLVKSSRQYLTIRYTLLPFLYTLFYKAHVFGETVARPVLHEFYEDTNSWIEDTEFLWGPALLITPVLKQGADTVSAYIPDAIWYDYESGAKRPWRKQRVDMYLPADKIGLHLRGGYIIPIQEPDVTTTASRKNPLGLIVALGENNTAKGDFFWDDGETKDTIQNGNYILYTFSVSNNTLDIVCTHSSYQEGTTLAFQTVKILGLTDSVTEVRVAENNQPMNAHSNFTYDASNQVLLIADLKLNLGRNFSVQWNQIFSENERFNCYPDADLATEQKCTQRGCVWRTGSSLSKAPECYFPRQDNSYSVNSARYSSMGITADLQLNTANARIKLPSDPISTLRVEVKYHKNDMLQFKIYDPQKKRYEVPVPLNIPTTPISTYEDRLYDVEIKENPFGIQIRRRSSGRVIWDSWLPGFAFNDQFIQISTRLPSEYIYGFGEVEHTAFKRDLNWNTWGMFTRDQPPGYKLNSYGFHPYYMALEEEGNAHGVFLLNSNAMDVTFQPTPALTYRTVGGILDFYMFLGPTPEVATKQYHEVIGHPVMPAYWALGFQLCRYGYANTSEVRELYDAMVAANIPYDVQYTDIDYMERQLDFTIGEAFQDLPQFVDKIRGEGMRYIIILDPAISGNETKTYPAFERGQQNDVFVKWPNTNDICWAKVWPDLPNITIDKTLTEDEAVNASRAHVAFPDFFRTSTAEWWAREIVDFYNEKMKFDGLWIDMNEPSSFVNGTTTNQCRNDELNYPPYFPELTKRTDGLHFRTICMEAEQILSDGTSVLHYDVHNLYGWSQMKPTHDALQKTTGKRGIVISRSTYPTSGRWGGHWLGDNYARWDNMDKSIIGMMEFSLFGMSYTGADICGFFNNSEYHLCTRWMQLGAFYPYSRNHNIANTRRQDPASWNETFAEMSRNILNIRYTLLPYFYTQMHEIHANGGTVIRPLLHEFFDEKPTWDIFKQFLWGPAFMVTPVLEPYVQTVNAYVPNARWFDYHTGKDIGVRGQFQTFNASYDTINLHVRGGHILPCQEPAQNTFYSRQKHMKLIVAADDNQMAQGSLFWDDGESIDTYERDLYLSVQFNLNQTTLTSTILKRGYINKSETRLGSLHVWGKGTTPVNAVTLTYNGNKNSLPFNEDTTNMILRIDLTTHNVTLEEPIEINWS
# Description: (§1) (B) Sucrase and Maltase. Intestinal sucrase and maltase activities were determined by measuring the formation of reducing sugar from sucrose and maltitol, respectively. The reaction mixture contained 7.5 micromoles sodium citrate buffer, pH 6, 9 micromoles of substrate (sucrose or maltitol), and enzyme, in a final volume of 0.3 ml. […] For both enzymes, activity was proportional with time, and amount of protein. As described above for the arylglycosidases, inhibitors were preincubated with enzyme prior to the addition of substrate.
# intestinal maltase = intestinal maltase activity, maltitol as substrate; type: biochemical
# Description: as §1
# glucosidase II = test: processing glucosidase II, release of p-nitrophenol from p-nitrophenyl-alpha-D-glucoside; type: biochemical, mung bean
# beta-glucosidase = beta-glucosidase inhibition, p-nitrophenyl-glycoside substrate; type: biochemical, almonds
# amyloglucosidase = target: T2, amyloglucosidase (Aspergillus niger, UniProt P69328); test: amyloglucosidase (alpha-glucosidase) inhibition, p-nitrophenyl-alpha-D-glucoside substrate; type: biochemical
# T2 construct: purchased Sigma Chemical Company
# T2 sequence (P69328 25-640): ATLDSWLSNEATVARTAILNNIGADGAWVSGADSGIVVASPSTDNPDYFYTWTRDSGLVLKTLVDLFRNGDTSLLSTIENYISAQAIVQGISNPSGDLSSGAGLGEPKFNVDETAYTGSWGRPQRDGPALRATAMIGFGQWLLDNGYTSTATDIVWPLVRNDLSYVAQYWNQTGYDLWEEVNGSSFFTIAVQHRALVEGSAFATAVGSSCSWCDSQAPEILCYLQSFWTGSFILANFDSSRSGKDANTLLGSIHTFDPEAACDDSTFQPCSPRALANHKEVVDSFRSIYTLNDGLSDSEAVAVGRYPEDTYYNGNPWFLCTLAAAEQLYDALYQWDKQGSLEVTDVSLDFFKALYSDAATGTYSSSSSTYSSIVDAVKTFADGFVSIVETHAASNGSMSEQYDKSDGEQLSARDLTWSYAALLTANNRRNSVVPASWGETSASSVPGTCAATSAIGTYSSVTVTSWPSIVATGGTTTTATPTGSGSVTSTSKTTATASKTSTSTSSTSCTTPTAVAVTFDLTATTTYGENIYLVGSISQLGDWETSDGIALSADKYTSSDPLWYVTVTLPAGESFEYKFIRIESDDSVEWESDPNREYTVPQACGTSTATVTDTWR
# alpha-galactosidase = alpha-galactosidase inhibition; type: biochemical, Aspergillus niger
# Beta-Mannosidase = Beta-Mannosidase (Aspergillus niger, UniProt Q9UUZ3); test: beta-mannosidase inhibition; type: biochemical
# Beta-Mannosidase, sequence (Q9UUZ3 22-931): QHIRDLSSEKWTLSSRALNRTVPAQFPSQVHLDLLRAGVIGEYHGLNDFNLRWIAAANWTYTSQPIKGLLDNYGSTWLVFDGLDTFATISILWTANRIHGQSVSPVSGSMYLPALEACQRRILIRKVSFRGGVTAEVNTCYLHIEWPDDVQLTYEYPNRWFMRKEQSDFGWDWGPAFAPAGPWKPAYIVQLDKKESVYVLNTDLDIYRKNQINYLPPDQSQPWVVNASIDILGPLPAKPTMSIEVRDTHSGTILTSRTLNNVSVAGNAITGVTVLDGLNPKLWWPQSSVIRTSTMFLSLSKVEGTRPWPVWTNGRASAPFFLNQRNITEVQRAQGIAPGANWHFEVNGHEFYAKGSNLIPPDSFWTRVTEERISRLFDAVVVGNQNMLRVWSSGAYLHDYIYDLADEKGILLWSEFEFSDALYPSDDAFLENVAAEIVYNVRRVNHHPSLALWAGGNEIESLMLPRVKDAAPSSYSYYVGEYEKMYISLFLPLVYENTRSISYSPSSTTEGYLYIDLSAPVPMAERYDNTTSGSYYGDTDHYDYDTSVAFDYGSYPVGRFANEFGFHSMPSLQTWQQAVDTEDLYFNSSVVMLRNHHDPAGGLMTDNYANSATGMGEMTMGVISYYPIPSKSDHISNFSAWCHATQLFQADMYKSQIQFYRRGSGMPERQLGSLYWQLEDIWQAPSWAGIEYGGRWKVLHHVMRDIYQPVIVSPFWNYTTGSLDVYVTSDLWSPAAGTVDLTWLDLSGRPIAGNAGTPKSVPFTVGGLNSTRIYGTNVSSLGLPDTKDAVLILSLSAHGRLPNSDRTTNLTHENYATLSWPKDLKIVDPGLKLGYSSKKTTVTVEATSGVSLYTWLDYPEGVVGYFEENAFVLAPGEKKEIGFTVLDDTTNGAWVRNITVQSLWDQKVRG
# alpha-mannosidase = target: T3, alpha-mannosidase (Canavalia ensiformis, UniProt C0HJB3); test: alpha-mannosidase inhibition; type: biochemical, jack bean
# T3 construct: purchased Sigma Chemical Company
# T3 sequence (C0HJB3 whole entry): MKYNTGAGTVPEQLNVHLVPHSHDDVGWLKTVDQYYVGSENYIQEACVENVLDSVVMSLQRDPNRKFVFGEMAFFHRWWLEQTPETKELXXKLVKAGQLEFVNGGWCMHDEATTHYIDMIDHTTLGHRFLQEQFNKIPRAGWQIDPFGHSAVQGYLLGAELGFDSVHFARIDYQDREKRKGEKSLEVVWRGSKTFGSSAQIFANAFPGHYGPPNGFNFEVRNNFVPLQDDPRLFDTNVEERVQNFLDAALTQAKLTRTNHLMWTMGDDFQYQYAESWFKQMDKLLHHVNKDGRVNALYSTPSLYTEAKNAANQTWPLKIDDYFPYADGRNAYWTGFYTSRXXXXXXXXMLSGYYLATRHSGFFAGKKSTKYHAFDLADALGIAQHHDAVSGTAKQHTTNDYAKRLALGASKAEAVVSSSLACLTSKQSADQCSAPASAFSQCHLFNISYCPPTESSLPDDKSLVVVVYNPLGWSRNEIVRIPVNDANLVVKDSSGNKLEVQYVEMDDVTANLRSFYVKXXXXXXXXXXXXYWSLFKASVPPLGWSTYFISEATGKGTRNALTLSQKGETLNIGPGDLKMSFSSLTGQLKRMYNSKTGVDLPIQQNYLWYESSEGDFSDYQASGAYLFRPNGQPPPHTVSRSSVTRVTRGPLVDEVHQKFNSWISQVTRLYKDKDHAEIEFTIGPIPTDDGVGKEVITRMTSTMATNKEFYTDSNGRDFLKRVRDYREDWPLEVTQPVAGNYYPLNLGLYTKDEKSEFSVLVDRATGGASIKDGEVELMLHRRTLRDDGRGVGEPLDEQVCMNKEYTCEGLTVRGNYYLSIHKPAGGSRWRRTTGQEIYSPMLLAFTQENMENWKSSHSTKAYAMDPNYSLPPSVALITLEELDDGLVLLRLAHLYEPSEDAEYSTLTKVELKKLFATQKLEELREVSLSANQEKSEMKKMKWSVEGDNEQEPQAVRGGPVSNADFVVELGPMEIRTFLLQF
# beta-galactosidase = beta-galactosidase inhibition; type: biochemical, bovine
# glycosidases = test: glycosidase inhibitory activity against generally available glycosidases; type: biochemical
# Description: GENERAL EX[…]. The alkaloids were monitored for purity by tlc on 0.25 mm silica gel plates developed with CHCl3 :MeOH:HN4 OH:H2 O (70:26:2:2) and detected by spraying with acetic anhydride followed by Ehrlich's reagent (21). Homogeneity was also checked by gc of the TMS derivatives, prepared by treatment with MSTFA in pyridine, on a Hewlett-Packard 5830 instrument equipped with a flame-ionization detector, on-column injector, and a 30-m×0.32-mm i.d. SE-30 fused silica column. Low resolution electron and ammonia chemical ionization mass spectra were obtained on a VG Micromass 7070 mass spectrometer; high resolution mass measurements were determined on the same instrument. Optical rotations were measured in a 1-dm cell on a Perkin-Elmer 241 automatic polarimeter. Nuclear magnetic resonance spectra were determined in D2 O on a Nicolet NTC 200FT spectrometer with software package at 200 MHz (^1 H) and at 50.3 MHz (^13 C) using 3-(trimethylsilyl)-1-propanesulfonic acid (TSP) as an internal standard. Multiplicities for ^13 C signals were determined by application of the carbon attached proton test (CAPT) sequence. Preparative centrifugal tlc was performed on a Chromatotron Model 7924 (Harrison Research, Palo Alto, Calif.). Enzyme assay methods have been previously described (67), Melting points are uncorrected.
# uninfected MDCK cells [2] = test: incorporation of [3H]mannose into lipid-linked saccharides
# Description: (§2) The cells then were incubated for 15-120 min with either [2-^3 H]mannose (20 micro Ci/ml) or [4,5-^3 H]leucine (10 micro Ci/ml) to label lipid-linked saccharides and cellular proteins, respectively. At the end of the labeling period, the medium was removed by aspiration, and the monolayers were washed 3 times with PB S. One ml of PBS was added to each well, the cells were dislodged by scraping, and were then quantitatively transferred to reaction tubes. Each well was washed with another 1 ml of PBS and this rinse was also added to the initial tube. Radioactivity incorporated into lipid-linked monosaccharides and oligosaccharides was determined after extraction with chloroform:methanol:water (1:1:1) and chloroform:methanol:water (10:10:3), respectively, as previously described (60).
# (§3) Uninfected MDCK cells were grown in 6well Limbro tissue culture dishes. A
# (§4) confluency, australine was added to some wells to the final concentration
# (§5) listed above. After a 2 hour incubation to allow the alkaloid to take
# (§6) effect, [^3 H]mannose was added to a final concentration of 20 micro
# (§7) Ci/ml, and the incubations were continued. At the times shown, the medium
# (§8) was removed by aspiration, and the monolayers were washed three times wit
# (§9) PBS. The cells were released from the wells by scraping, placed in tubes,
# (§10) then sequentially extracted with chloroform:methanol:water (1:1:1) for
# (§11) lipidlinked monosaccharides, and chloroform:methanol:water (10:10:3) for
# (§12) lipidlinked oligosaccharides. The total radioactivity incorporated into
# (§13) the lipidlinked sugars was determined by liquid scintillation counting.
# uninfected MDCK cells [3] = details: 50 micro g/ml, 60 min
# Description: as §2, §3, §4, §5, §6, §7, §8, §9, §10, §11, §12, §13
# uninfected MDCK cells [4] = test system: uninfected MDCK cells
# Description: (§14) The cells then were incubated for 15-120 min with either [2-^3 H]mannose (20 micro Ci/ml) or [4,5-^3 H]leucine (10 micro Ci/ml) to label lipid-linked saccharides and cellular proteins, respectively. At the end of the labeling period, the medium was removed by aspiration, and the monolayers were washed 3 times with PB S. One ml of PBS was added to each well, the cells were dislodged by scraping, and were then quantitatively transferred to reaction tubes. Each well was washed with another 1 ml of PBS and this rinse was also added to the initial tube. […] For the incorporation of radiolabel into protein, cells were extracted with TCA at a final concentration of 20% in the presence of 500 micro g of bovine serum albumin. Following an overnight incubation at 4° C., precipitated protein was isolated by centrifugation. The precipitate was washed twice with 5% TCA, and once with absolute methanol, and then digested with Pronase as described above. Pronase-released radioactivity was measured by liquid scintillation counting.
# (§15) Uninfected MDCK cells were grown in 6well Limbro tissue culture dishes.
# as §4
# (§16) After a 2 hours incubation to allow the alkaloid to take
# At the times shown, the medium
# as §8, §9
# (§17) and extracted with 20% TCA as described above. Radioactivity incorporated
# (§18) into total cellular protein was determined after Pronase digestion by
# liquid scintillation counting.
# [5] = test system: influenza virus glycoproteins in infected MDCK cells; test: glycoprotein processing in influenza virus-infected MDCK cells (Endo H-sensitive oligosaccharides); details: mannose-labeled glycopeptide, printed as 10 micro g/ml
# [6] = test system: human immunodeficiency virus (HIV-1); test: replication of HIV-1 in tissue culture cells; type: cell-based
# uninfected MDCK cells [7] = test: incorporation of [3H]leucine into protein (protein synthesis)
# Description: as §14, §15, §4, §16
# At the times shown, the medium
# as §8, §9, §17, §18
# liquid scintillation counting.
# [8] = concentrations up to 500 micro M
smiles,measurement,setting,value
"O[C@H]1[C@H](O)[C@@H](O)CN2CC[C@H](O)[C@H]12 [castanospermine, reference compound]",Ki,glucosidase I,~1 µM
same,concentration producing the same degree of inhibition (increased proportion of Endo H-susceptible glycopeptides) as 500 micro g/ml australine,[1],10 micro g/ml
same,Ki,intestinal sucrase,< 1 µM
same,Ki,intestinal maltase,< 1 µM
same,inhibition of glucosidase II,glucosidase II,inhibited by micromolar amounts
same,inhibition of beta-glucosidase,beta-glucosidase,inhibited
same,IC50,beta-glucosidase; read-out: level which inhibited 50% of the beta-glucosidase activity,66 µM
same,Ki,"amyloglucosidase; Example 1, read-out: Ki",7.9 µM
"OC[C@H]1NCC[C@@H](O)[C@@H]1O [fagomine, 1,2,5-trideoxy-1,5-imino-D-arabino-hexitol, reference compound]",inhibition of alpha-galactosidase,alpha-galactosidase,No significant glycosidase inhibitory activity
same,inhibition of beta-mannosidase,Beta-Mannosidase,No significant glycosidase inhibitory activity
same,inhibition of alpha-mannosidase,alpha-mannosidase,No significant glycosidase inhibitory activity
same,inhibition of beta-galactosidase,beta-galactosidase,No significant glycosidase inhibitory activity
same,glycosidase inhibitory activity,glycosidases,no inhibitory activity
same,inhibition of beta-glucosidase,beta-glucosidase,No significant glycosidase inhibitory activity
same,glycosidase inhibitory activity against alpha-glucosidase,amyloglucosidase; commercially available enzyme,No significant glycosidase inhibitory activity
OC[C@@H]1[C@@H]2[C@H](O)CCN2C[C@H]1O [rosmarinecine],glycosidase inhibitory activity,glycosidases,lack glycosidase inhibitory activity
"OC[C@@H]1[C@@H](O)[C@H](O)[C@H]2[C@@H](O)CCN21 [australine, (1R, 2R, 3R, 7S, 7aR)-3-hydroxymethyl-1,2,7-trihydroxypyrrolizidine]",incorporation of [3H]mannose into lipid-linked oligosaccharide,uninfected MDCK cells [2]; 50-500 micro g/ml,appeared to be stimulated
same,"Radioactivity, Lipid-linked monosaccharides","uninfected MDCK cells [2]; 50 micro g/ml, 15 min",97 cpm
same,"Radioactivity, Lipid-linked oligosaccharides","uninfected MDCK cells [2]; 50 micro g/ml, 15 min",1672 cpm
same,"Radioactivity, Lipid-linked monosaccharides","uninfected MDCK cells [2]; 50 micro g/ml, 30 min",122 cpm
same,"Radioactivity, Lipid-linked oligosaccharides","uninfected MDCK cells [2]; 50 micro g/ml, 30 min",5021 cpm
same,"Radioactivity, Lipid-linked monosaccharides","uninfected MDCK cells [2]; 50 micro g/ml, 60 min",229 cpm
same,"Radioactivity, Lipid-linked monosaccharides","uninfected MDCK cells [2]; 100 micro g/ml, 15 min",101 cpm
same,"Radioactivity, Lipid-linked oligosaccharides","uninfected MDCK cells [2]; 100 micro g/ml, 15 min",2336 cpm
same,"Radioactivity, Lipid-linked monosaccharides","uninfected MDCK cells [2]; 100 micro g/ml, 30 min",151 cpm
same,"Radioactivity, Lipid-linked oligosaccharides","uninfected MDCK cells [2]; 100 micro g/ml, 30 min",5335 cpm
same,"Radioactivity, Lipid-linked monosaccharides","uninfected MDCK cells [2]; 100 micro g/ml, 60 min",244 cpm
same,"Radioactivity, Lipid-linked oligosaccharides","uninfected MDCK cells [2]; 100 micro g/ml, 60 min",1104 cpm
same,"Radioactivity, Lipid-linked monosaccharides","uninfected MDCK cells [2]; 250 micro g/ml, 15 min",107 cpm
same,"Radioactivity, Lipid-linked oligosaccharides","uninfected MDCK cells [2]; 250 micro g/ml, 15 min",2073 cpm
same,"Radioactivity, Lipid-linked monosaccharides","uninfected MDCK cells [2]; 250 micro g/ml, 30 min",115 cpm
same,"Radioactivity, Lipid-linked oligosaccharides","uninfected MDCK cells [2]; 250 micro g/ml, 30 min",5661 cpm
same,"Radioactivity, Lipid-linked monosaccharides","uninfected MDCK cells [2]; 250 micro g/ml, 60 min",212 cpm
same,"Radioactivity, Lipid-linked oligosaccharides","uninfected MDCK cells [2]; 250 micro g/ml, 60 min",995 cpm
same,"Radioactivity, Lipid-linked monosaccharides","uninfected MDCK cells [2]; 500 micro g/ml, 15 min",96 cpm
same,"Radioactivity, Lipid-linked oligosaccharides","uninfected MDCK cells [2]; 500 micro g/ml, 15 min",2957 cpm
same,"Radioactivity, Lipid-linked monosaccharides","uninfected MDCK cells [2]; 500 micro g/ml, 30 min",178 cpm
same,"Radioactivity, Lipid-linked oligosaccharides","uninfected MDCK cells [2]; 500 micro g/ml, 30 min",6167 cpm
same,"Radioactivity, Lipid-linked monosaccharides","uninfected MDCK cells [2]; 500 micro g/ml, 60 min",236 cpm
same,"Radioactivity, Lipid-linked oligosaccharides","uninfected MDCK cells [2]; 500 micro g/ml, 60 min",1108 cpm
same,"Radioactivity, Lipid-linked oligosaccharides",uninfected MDCK cells [3],1077 cpm
same,inhibition of alpha-galactosidase,alpha-galactosidase,No significant inhibition
same,effect on alpha-galactosidase,alpha-galactosidase; [8],no apparent effect
same,inhibition of beta-mannosidase,Beta-Mannosidase,No significant inhibition
same,effect on beta-mannosidase,Beta-Mannosidase; [8],no apparent effect
same,Radioactivity incorporated into protein,"uninfected MDCK cells [4]; 50 micro ug/ml, 30 min",9252 cpm
same,Radioactivity incorporated into protein,"uninfected MDCK cells [4]; 100 micro ug/ml, 30 min",8304 cpm
same,Radioactivity incorporated into protein,"uninfected MDCK cells [4]; 100 micro ug/ml, 60 min",1588 cpm
same,Radioactivity incorporated into protein,"uninfected MDCK cells [4]; 100 micro ug/ml, 90 min",25636 cpm
same,Radioactivity incorporated into protein,"uninfected MDCK cells [4]; 100 micro ug/ml, 120 min",32008 cpm
same,inhibition of alpha-mannosidase,alpha-mannosidase,No significant inhibition
same,effect on alpha-mannosidase,alpha-mannosidase; [8],no apparent effect
same,Ki,glucosidase I,~20 µM
same,Endo H-released proportion,[5],55%
same,Ki,intestinal sucrase,~28 µM
same,Ki,intestinal maltase,~35 µM
same,activity against glucosidase II,glucosidase II; [8],no activity
same,inhibition of HIV-1 replication,[6],"inhibited the growth of the virus, but this alkaloid was not as effective as an inhibitor as was castanospermine"
same,inhibition of beta-galactosidase,beta-galactosidase,No significant inhibition
same,effect on beta-galactosidase,beta-galactosidase; [8],no apparent effect
same,inhibition of beta-glucosidase,beta-glucosidase,No significant inhibition
same,inhibition of beta-glucosidase activity,beta-glucosidase; at 66 micro M,less than 5%
same,Radioactivity incorporated into protein,"uninfected MDCK cells [7]; 50 micro ug/ml, 60 min",16572 cpm
same,Radioactivity incorporated into protein,"uninfected MDCK cells [7]; 50 micro ug/ml, 90 min",23341 cpm
same,Radioactivity incorporated into protein,"uninfected MDCK cells [7]; 50 micro ug/ml, 120 min",33704 cpm
same,effect on overall rate of protein synthesis,"uninfected MDCK cells [7]; 50 to 500 micro g/ml, times up to 120 min",little effect
same,Radioactivity incorporated into protein,"uninfected MDCK cells [7]; 250 micro ug/ml, 30 min",8064 cpm
same,Radioactivity incorporated into protein,"uninfected MDCK cells [7]; 250 micro ug/ml, 60 min",13604 cpm
same,Radioactivity incorporated into protein,"uninfected MDCK cells [7]; 250 micro ug/ml, 90 min",27776 cpm
same,Radioactivity incorporated into protein,"uninfected MDCK cells [7]; 250 micro ug/ml, 120 min",36140 cpm
same,Radioactivity incorporated into protein,"uninfected MDCK cells [7]; 500 micro ug/ml, 30 min",9124 cpm
same,Radioactivity incorporated into protein,"uninfected MDCK cells [7]; 500 micro ug/ml, 60 min",15648 cpm
same,Radioactivity incorporated into protein,"uninfected MDCK cells [7]; 500 micro ug/ml, 90 min",26060 cpm
same,Radioactivity incorporated into protein,"uninfected MDCK cells [7]; 500 micro ug/ml, 120 min",32704 cpm
same,Ki,"amyloglucosidase; Example 2, p-nitrophenyl-alpha-D-glucoside substrate, read-out: apparent Ki",5.8 µM
same,type of inhibition,"amyloglucosidase; Lineweaver-Burk, 0.5 and 1 micro g/ml australine",competitive
